From patent publication US9346798B2, “Dihydrobenzoxazine and tetrahydroquinoxaline sodium channel inhibitors” (AMGEN INC., priority 2012, dated 2016)

Columns and labels:
Format in all cases: cell-based
Nav 1.7 [1] = target: T1, Nav 1.7 (Homo sapiens (Human), UniProt Q15858); assay: Nav 1.7 in vitro assay, IonWorks Quattro (IWQ) population patch-clamp; details: HEK 293 cells stably transfected with Nav 1.7; 26th pulse to -20 mV
Description: (§1) Nav 1.7 and Nav 1.5 In Vitro Assays
(§2) HEK 293 cells stably transfected with either Nav 1.7 or with Nav 1.5 were recorded in population patch-clamp mode with the IonWorks® Quattro automated electrophysiology system in accordance with the manufacturer's specifications (Molecular Devices, LLC, Sunnyvale, Calif.). Sodium channel currents were measured in response to a train of depolarizations that induced successively greater inactivation.
(§3) Cells were held at −110 mV for three seconds (Nav 1.7) or half a second (Nav 1.5) from a holding voltage of −15 mV, then put through a series of 26 pulses of 150 msec duration to −20 mV at a frequency of 5 Hz. Cells were then left unclamped for a period of 3 to 8 minutes while a single concentration of test compound was added. Cells were then reclamped and put through the same voltage protocol. Current at the end of the 26th pulse to −20 mV was subtracted from the peak current evoked by the 26th pulse to −20 mV to correct for leak current. Percent block was calculated for each concentration in duplicate, and IC50 curves were fitted to percent block as a function of concentration.

Nav 1.5 = Nav 1.5 (Homo sapiens (Human), UniProt Q14524); assay: Nav 1.5 in vitro assay, IonWorks Quattro (IWQ) population patch-clamp; details: HEK 293 cells stably transfected with Nav 1.5; 26th pulse to -20 mV
Description: as §1, §2, §3

Nav 1.7 [2] = target: T1, Nav 1.7; assay: Nav 1.7 in vitro PX assay, PatchXpress whole cell voltage clamp; details: HEK 293 cells stably transfected with human Nav1.7; for inhibition at 4.9 µM: HEK293, values marked *, read-out: Nav 1.7 PX percent inhibition at 4.9 μM; for IC50: partially inactivated state (20 to 50% inactivation)
Description: Nav 1.7 In Vitro PX Assay
HEK 293 cells stably transfected with human Nav1.7 were recorded in whole cell voltage clamp mode with the PatchXpress automated electrophysiology system (Molecular Devices, LLC, Sunnyvale, Calif.). Compound effects were measured on a partially inactivated state of the sodium channel. Cells were clamped to a holding potential yielding 20 to 50% inactivation. To elicit sodium current, channels were activated by pulsing to −10 mV for 20 msec. This voltage protocol was repeated at a rate of 0.1 Hz throughout the experiment. A single concentration of test compound was applied to cells for a duration of 3 minutes. Peak sodium current was measured at the end of the compound addition period to determine percent inhibition. Three to five cells were tested per concentration, and IC50 curves were fitted to percent inhibition as a function of concentration.

T1 sequence (Q15858 whole entry): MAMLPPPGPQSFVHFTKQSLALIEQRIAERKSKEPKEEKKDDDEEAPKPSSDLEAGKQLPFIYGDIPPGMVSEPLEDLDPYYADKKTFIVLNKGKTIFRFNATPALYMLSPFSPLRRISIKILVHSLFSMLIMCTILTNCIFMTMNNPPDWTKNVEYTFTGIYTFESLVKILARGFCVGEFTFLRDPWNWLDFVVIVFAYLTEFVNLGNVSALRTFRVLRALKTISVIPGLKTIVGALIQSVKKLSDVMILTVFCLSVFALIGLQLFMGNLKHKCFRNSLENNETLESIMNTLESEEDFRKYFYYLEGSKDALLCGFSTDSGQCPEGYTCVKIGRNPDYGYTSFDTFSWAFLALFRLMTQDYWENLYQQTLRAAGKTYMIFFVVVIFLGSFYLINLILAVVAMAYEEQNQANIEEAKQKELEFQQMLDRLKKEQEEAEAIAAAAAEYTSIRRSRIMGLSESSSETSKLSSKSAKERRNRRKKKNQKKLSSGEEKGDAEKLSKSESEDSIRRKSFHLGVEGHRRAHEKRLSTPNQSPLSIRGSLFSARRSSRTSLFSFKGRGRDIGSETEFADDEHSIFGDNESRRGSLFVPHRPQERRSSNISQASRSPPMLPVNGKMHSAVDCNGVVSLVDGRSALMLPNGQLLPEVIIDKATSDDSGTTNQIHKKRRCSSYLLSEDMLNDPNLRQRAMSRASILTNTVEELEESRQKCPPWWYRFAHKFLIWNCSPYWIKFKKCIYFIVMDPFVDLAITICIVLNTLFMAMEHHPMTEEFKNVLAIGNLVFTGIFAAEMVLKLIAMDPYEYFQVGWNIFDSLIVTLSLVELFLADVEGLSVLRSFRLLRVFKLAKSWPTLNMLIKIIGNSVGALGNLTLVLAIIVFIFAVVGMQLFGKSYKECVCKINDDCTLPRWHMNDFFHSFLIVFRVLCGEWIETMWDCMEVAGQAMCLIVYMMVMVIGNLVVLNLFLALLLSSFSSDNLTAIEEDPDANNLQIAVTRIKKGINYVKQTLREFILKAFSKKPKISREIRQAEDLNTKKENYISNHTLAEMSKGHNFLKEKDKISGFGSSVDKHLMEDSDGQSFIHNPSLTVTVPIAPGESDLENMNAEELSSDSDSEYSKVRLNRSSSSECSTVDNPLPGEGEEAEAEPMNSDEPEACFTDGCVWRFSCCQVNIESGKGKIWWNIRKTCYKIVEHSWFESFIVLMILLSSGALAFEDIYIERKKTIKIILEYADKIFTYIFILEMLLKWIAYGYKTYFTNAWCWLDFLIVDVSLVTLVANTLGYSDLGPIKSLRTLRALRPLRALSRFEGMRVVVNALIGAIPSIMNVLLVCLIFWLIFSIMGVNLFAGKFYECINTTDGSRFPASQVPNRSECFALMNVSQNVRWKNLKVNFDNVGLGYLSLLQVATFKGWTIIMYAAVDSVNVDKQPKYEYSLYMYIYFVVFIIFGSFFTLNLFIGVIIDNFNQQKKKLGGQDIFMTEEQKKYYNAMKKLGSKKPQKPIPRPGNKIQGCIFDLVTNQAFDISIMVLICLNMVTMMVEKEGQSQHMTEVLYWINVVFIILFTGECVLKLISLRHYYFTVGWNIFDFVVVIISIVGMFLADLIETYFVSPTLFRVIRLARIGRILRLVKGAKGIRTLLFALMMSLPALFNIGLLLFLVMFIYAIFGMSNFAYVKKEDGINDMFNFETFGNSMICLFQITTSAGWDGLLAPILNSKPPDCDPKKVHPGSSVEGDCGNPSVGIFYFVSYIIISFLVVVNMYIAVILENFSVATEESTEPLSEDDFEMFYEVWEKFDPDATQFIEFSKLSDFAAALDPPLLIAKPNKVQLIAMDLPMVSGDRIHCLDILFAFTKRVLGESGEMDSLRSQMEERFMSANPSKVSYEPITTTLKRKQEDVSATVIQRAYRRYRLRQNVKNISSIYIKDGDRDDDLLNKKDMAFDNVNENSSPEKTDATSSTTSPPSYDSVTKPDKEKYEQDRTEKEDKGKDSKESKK
Chain of Nav 1.5 (Q14524 whole entry): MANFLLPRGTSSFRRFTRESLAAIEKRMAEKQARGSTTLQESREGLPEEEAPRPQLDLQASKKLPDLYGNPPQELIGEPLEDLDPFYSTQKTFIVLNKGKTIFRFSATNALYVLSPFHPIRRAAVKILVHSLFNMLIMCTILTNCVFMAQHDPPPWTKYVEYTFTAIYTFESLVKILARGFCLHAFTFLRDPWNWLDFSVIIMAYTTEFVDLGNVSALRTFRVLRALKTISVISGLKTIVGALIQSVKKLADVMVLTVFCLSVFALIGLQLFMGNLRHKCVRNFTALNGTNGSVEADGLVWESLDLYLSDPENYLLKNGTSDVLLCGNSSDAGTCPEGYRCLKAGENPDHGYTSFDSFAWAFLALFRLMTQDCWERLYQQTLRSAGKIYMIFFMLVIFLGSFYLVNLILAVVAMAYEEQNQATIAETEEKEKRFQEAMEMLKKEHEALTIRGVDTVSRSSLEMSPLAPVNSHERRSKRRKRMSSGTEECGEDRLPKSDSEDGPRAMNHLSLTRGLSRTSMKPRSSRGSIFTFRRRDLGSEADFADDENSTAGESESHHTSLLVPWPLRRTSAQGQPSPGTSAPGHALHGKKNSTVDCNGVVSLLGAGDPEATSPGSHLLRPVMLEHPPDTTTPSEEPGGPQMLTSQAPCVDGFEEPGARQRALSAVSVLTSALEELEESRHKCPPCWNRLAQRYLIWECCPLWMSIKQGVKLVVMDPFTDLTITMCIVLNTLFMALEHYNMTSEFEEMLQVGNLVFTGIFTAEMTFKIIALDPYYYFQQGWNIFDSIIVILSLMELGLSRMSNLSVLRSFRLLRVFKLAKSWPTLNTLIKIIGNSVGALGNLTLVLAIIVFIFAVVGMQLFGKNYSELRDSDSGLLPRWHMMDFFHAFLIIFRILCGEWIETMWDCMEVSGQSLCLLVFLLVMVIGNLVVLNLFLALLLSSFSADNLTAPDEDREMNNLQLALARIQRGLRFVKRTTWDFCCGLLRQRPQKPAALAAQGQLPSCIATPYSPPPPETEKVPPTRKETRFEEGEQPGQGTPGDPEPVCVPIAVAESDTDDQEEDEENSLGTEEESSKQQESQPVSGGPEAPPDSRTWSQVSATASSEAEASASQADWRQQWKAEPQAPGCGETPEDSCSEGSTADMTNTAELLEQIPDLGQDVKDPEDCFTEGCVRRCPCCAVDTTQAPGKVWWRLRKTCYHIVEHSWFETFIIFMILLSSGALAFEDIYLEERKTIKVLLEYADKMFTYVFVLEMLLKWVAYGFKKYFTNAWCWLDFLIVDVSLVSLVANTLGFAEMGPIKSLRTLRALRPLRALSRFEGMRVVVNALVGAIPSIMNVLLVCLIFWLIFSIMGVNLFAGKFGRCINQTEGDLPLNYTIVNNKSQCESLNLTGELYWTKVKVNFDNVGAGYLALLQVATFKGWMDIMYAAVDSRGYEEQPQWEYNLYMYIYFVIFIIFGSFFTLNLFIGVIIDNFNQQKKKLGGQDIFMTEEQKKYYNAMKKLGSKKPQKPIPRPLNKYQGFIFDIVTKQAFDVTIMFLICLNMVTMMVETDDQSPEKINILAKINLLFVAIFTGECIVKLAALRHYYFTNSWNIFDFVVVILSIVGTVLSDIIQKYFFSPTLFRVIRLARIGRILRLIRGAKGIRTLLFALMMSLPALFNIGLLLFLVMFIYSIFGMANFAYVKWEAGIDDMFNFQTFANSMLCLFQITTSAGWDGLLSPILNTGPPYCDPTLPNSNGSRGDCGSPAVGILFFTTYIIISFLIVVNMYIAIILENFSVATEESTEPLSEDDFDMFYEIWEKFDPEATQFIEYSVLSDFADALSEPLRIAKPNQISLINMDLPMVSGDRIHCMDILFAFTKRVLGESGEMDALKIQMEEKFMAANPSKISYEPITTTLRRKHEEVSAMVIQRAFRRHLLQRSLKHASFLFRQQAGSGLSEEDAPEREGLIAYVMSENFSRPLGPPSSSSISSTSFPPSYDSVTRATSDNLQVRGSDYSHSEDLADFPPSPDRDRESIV

| SMILES | IC50 (Nav 1.5) [µM] | also measured |
| --- | --- | --- |
| CN(C)CCn1ccc(NS(=O)(=O)c2ccc3c(c2)OCCN3c2ccc(C(F)(F)F)cc2Cl)n1 [Example 14, 4-(2-Chloro-4-(Trifluoromethyl)Phenyl)-N-(1-(2-(Dimethylamino)Ethyl)-1H-Pyrazol-3-Yl)-3,4-Dihydro-2H-Benzo[B][1,4]Oxazine-7-Sulfonamide 2,2,2-Trifluoroacetate] | 8.25 | IC50 (Nav 1.7 [1]): 9.31 µM |
| O=S(=O)(Nc1nccs1)c1ccc2c(c1)OCCN2c1ccc(-n2ccnc2)cc1 [Example 154, 4-(4-(1H-Imidazol-1-Yl)Phenyl)-N-(Thiazol-2-Yl)-3,4-Dihydro-2H-Benzo[B][1,4]Oxazine-7-Sulfonamide 2,2,2-Trifluoroacetate] | > 10 |  |
| O=S(=O)(Nc1nccs1)c1ccc2c(c1)OCCN2c1cccc(Cl)c1Cl [Example 171, 4-(2,3-Dichlorophenyl)-N-(Thiazol-2-Yl)-3,4-Dihydro-2H-Benzo[B][1,4]Oxazine-7-Sulfonamide 2,2,2-Trifluoroacetate] | 6.44 |  |
| O=S(=O)(Nc1nccs1)c1ccc2c(c1)OCCN2c1cccc2scnc12 [Example 72, 4-(Benzo[D]Thiazol-4-Yl)-N-(Thiazol-2-Yl)-3,4-Dihydro-2H-Benzo[B][1,4]Oxazine-7-Sulfonamide 2,2,2-Trifluoroacetate] | > 10 |  |
| Cc1ccc(N2CCOc3cc(S(=O)(=O)Nc4nccs4)ccc32)cc1Cl [Example 163, 4-(3-Chloro-4-Methylphenyl)-N-(Thiazol-2-Yl)-3,4-Dihydro-2H-Benzo[B][1,4]Oxazine-7-Sulfonamide 2,2,2-Trifluoroacetate] | 3.14 |  |
| N#Cc1ccc(F)c(N2CCOc3cc(S(=O)(=O)Nc4nccs4)ccc32)c1 [Example 164, 4-(5-Cyano-2-Fluorophenyl)-N-(Thiazol-2-Yl)-3,4-Dihydro-2H-Benzo[B][1,4]Oxazine-7-Sulfonamide 2,2,2-Trifluoroacetate] | > 10 |  |
| N#Cc1ccc(F)cc1N1CCOc2cc(S(=O)(=O)Nc3nccs3)ccc21 [Example 188, 4-(2-Cyano-5-Fluorophenyl)-N-(Thiazol-2-Yl)-3,4-Dihydro-2H-Benzo[B][1,4]Oxazine-7-Sulfonamide] | 3.62 |  |
| COc1ccc(N2CCOc3cc(S(=O)(=O)Nc4nccs4)ccc32)c(C#N)c1 [Example 153, 4-(2-Cyano-4-Methoxyphenyl)-N-(Thiazol-2-Yl)-3,4-Dihydro-2H-Benzo[B][1,4]Oxazine-7-Sulfonamide 2,2,2-Trifluoroacetate] | > 10 |  |
| CC(=O)N1CCN(c2ccc(C(F)(F)F)cc2Cl)c2ccc(S(=O)(=O)Nc3ncns3)cc21 [Example 20, 4-Acetyl-1-(2-Chloro-4-(Trifluoromethyl)Phenyl)-N-(1,2,4-Thiadiazol-5-Yl)-1,2,3,4-Tetrahydroquinoxaline-6-Sulfonamide] |  | IC50 (Nav 1.7 [1]): 7.6 µM; inhibition at 4.9 µM (Nav 1.7 [2]): 33.2% |
| Cc1cc(N2CCOc3cc(S(=O)(=O)Nc4nccs4)ccc32)cc(C)c1N(C)C [Example 161, 4-(4-(Dimethylamino)-3,5-Dimethylphenyl)-N-(Thiazol-2-Yl)-3,4-Dihydro-2H-Benzo[B][1,4]Oxazine-7-Sulfonamide 2,2,2-Trifluoroacetate] | 3.49 |  |
| O=C1CCCc2ccc(N3CCOc4cc(S(=O)(=O)Nc5nccs5)ccc43)cc21 [Example 160, 4-(8-Oxo-5,6,7,8-Tetrahydronaphthalen-2-Yl)-N-(Thiazol-2-Yl)-3,4-Dihydro-2H-Benzo[B][1,4]Oxazine-7-Sulfonamide 2,2,2-Trifluoroacetate] | > 10 |  |
| CCOc1cccc(N2CCOc3cc(S(=O)(=O)Nc4nccs4)ccc32)c1 [Example 162, 4-(3-Ethoxyphenyl)-N-(Thiazol-2-Yl)-3,4-Dihydro-2H-Benzo[B][1,4]Oxazine-7-Sulfonamide 2,2,2-Trifluoroacetate] | > 10 |  |
| O=S(=O)(Nc1nccs1)c1ccc2c(c1)OCCN2c1ncc(Cl)cc1Cl [Example 121, 4-(3,5-Dichloropyridin-2-yl)-N-(thiazol-2-yl)-3,4-dihydro-2H-benzo[b][1,4]oxazine-7-sulfonamide] | > 10 |  |
| O=S(=O)(Nc1nccs1)c1ccc2c(c1)OCCN2c1ccc(Cl)cc1C1=CCNCC1 [Example 52, 4-(4-Chloro-2-(1,2,3,6-Tetrahydropyridin-4-Yl)Phenyl)-N-(Thiazol-2-Yl)-3,4-Dihydro-2H-Benzo[B][1,4]Oxazine-7-Sulfonamide 2,2,2-Trifluoroacetate] |  | IC50 (Nav 1.7 [1]): 0.0045 µM; IC50 (Nav 1.7 [2]): 0.0355 µM |
| O=S(=O)(Nc1nccs1)c1ccc2c(c1)OCCN2c1ccccc1C(F)(F)F [Example 157, N-(Thiazol-2-Yl)-4-(2-(Trifluoromethyl)Phenyl)-3,4-Dihydro-2H-Benzo[B][1,4]Oxazine-7-Sulfonamide 2,2,2-Trifluoroacetate] | > 10 |  |
| CC(C)(C)OC(=O)N1CC=C(c2cc(C(F)(F)F)ccc2N2CCOc3cc(S(=O)(=O)Nc4ncns4)ccc32)CC1 [Example 6, Tert-Butyl 4-(2-(7-(N-(1,2,4-Thiadiazol-5-Yl)Sulfamoyl)-2H-Benzo[B][1,4]Oxazin-4(3H)-Yl)-5-(Trifluoromethyl)Phenyl)-5,6-Dihydropyridine-1(2H)-Carboxylate] | 2.29 |  |
| COc1cccc(N2CCOc3cc(S(=O)(=O)Nc4nccs4)ccc32)c1 [Example 77, 4-(3-Methoxyphenyl)-N-(Thiazol-2-Yl)-3,4-Dihydro-2H-Benzo[B][1,4]Oxazine-7-Sulfonamide 2,2,2-Trifluoroacetate] | > 10 |  |
| Cc1ccc(N2CCOc3cc(S(=O)(=O)Nc4nccs4)ccc32)cc1F [Example 82, 4-(3-Fluoro-4-Methylphenyl)-N-(Thiazol-2-Yl)-3,4-Dihydro-2H-Benzo[B][1,4]Oxazine-7-Sulfonamide 2,2,2-Trifluoroacetate] | > 10 |  |
| O=S(=O)(Nc1nccs1)c1ccc2c(c1)OCCN2c1cc(F)ccc1F [Example 83, 4-(2,5-Difluorophenyl)-N-(Thiazol-2-Yl)-3,4-Dihydro-2H-Benzo[B][1,4]Oxazine-7-Sulfonamide 2,2,2-Trifluoroacetate] | > 10 |  |
| CN1CC=C(c2cc(C(F)(F)F)ccc2N2CCOc3cc(S(=O)(=O)Nc4ccncn4)ccc32)CC1 [Example 51, 4-(2-(1-Methyl-1,2,3,6-Tetrahydropyridin-4-Yl)-4-(Trifluoromethyl)Phenyl)-N-(Pyrimidin-4-Yl)-3,4-Dihydro-2H-Benzo[B][1,4]Oxazine-7-Sulfonamide] | > 10 |  |
| O=S(=O)(Nc1nccs1)c1ccc2c(c1)OCCN2c1ccc(C(F)(F)F)cc1C1=CCNCC1 [Example 38, 4-(2-(1,2,3,6-Tetrahydropyridin-4-Yl)-4-(Trifluoromethyl)Phenyl)-N-(Thiazol-2-Yl)-3,4-Dihydro-2H-Benzo[B][1,4]Oxazine-7-Sulfonamide 2,2,2-Trifluoroacetate] | 0.254 |  |
| Cc1c(Cl)cccc1N1CCOc2cc(S(=O)(=O)Nc3nccs3)ccc21 [Example 169, 4-(3-Chloro-2-Methylphenyl)-N-(Thiazol-2-Yl)-3,4-Dihydro-2H-Benzo[B][1,4]Oxazine-7-Sulfonamide 2,2,2-Trifluoroacetate] | > 10 |  |
| O=S(=O)(Nc1nccs1)c1ccc2c(c1)OCCN2c1ccccc1Oc1ccncc1 [Example 260, 4-(2-(pyridin-4-yloxy)phenyl)-N-(thiazol-2-yl)-3,4-dihydro-2H-benzo[b][1,4]oxazine-7-sulfonamide] |  | IC50 (Nav 1.7 [2]): 2.26 µM |
| COc1ccc(F)cc1N1C(=O)COc2cc(S(=O)(=O)Nc3nccs3)ccc21 [Example 246, 4-(5-Fluoro-2-Methoxyphenyl)-3-Oxo-N-(Thiazol-2-Yl)-3,4-Dihydro-2H-Benzo[B][1,4]Oxazine-7-Sulfonamide] |  | IC50 (Nav 1.7 [2]): 0.54 µM |
| COCC1CN(c2ccc(Cl)cc2C#N)c2ccc(S(=O)(=O)Nc3nccs3)cc2O1 (stereo not drawn) [Example 251, 4-(4-chloro-2-cyanophenyl)-2-(methoxymethyl)-N-(thiazol-2-yl)-3,4-dihydro-2H-benzo[b][1,4]oxazine-7-sulfonamide] |  | inhibition at 4.9 µM (Nav 1.7 [2]): 27.8% |
| COCCOc1ccccc1N1CCOc2cc(S(=O)(=O)Nc3nccs3)ccc21 [Example 229, 4-(2-(2-Methoxyethoxy)Phenyl)-N-(Thiazol-2-Yl)-3,4-Dihydro-2H-Benzo[B][1,4]Oxazine-7-Sulfonamide] |  | IC50 (Nav 1.7 [2]): 3.16 µM |
| O=S(=O)(Nc1nccs1)c1ccc2c(c1)OCCN2c1ccc(F)cc1F [Example 176, 4-(2,4-Difluorophenyl)-N-(Thiazol-2-Yl)-3,4-Dihydro-2H-Benzo[B][1,4]Oxazine-7-Sulfonamide 2,2,2-Trifluoroacetate] | > 10 |  |
